Laboratory results: US20100197650A1, “COMPOSITIONS AND METHODS OF TREATMENT COMPRISING CEFTAROLINE” (FOREST LABORATORIES HOLDINGS LTD., priority 2008, published 2010)
Converted amounts (≈) assume the structure as drawn. Where two headings read alike, the source gives them in different places.

How the values were obtained:
P. aeruginosa = test: Susceptibility testing MIC/MBC, broth microdilution (Example 2); format: cell-based, Pseudomonas aeruginosa; conditions: for MBC range / MIC range: P. aeruginosa (20) clinical isolates; for MBC / MIC: Pseudomonas aeruginosa
[1] = tested on: ESBL-producing Klebsiella pneumoniae; test: as above; format: cell-based; conditions: for MBC range / MIC range: K. pneumonia (10) clinical isolates; for MBC / MIC: Klebsiella pneumoniae
ESBL-producing E. coli = test: as above; format: cell-based, Escherichia coli; conditions: for MBC range / MIC range: E. coli (10) clinical isolates; for MBC / MIC: Escherichia coli
[2] = tested on: clinical Enterobacteriacae and P. aeruginosa isolates; test: Susceptibility testing (Example 2), summary over species; format: cell-based; conditions: Pseudomonas aeruginosa, read-out: MIC values
[3] = tested on: AmpC-derepressed Enterobacter cloacae; test: microbe, parasite or virus in culture; format: cell-based; conditions: for MBC range / MIC range: E. cloacae (10) clinical isolates; for MBC / MIC: Enterobacter cloacae
Pseudomonas aeruginosa = test: MIC, broth microdilution (Example 1); format: cell-based
Method: (§1) Stock solutions of all antibacterial agents were prepared at 80-fold (80×) the final target concentration in the appropriate solvent and the solution was allowed to stand for 60 minutes. All antibacterial agents were in solution under these conditions. The final drug concentrations in the FIC assay plates were set to bracket the MIC value of each agent for each test organism, unless the strain was totally resistant to the test agent.
(§2) The test organisms were originally received from clinical sources, or from the American Type Culture Collection. Upon receipt, the isolates were streaked onto the appropriate growth medium: Chocolate Agar for H. influenzae, Tryptic Soy Agar II (Becton Dickinson, Sparks, Md.) supplemented with 5% defibrinated sheep blood for streptococci, and unsupplemented Tryptic Soy Agar II for all other organisms. Colonies were harvested from these plates and a cell suspension was prepared in Tryptic Soy Broth (Becton Dickinson) containing cryoprotectant. Aliquots were then frozen at −80° C. On the day prior to assay, the frozen seeds of the organisms to be tested in that session were thawed and streaked for isolation onto the appropriate agar medium plates and incubated overnight at 35° C.
(§3) The test medium for H. influenzae was Haemophilus Test Medium. Streptococci were tested in Mueller Hinton II Broth (Becton Dickinson; Lot 6235472) supplemented with 2% lysed horse blood (Cleveland Scientific, Bath, Ohio; Lot H88621). All other organisms were tested in Mueller Hinton II Broth (Becton Dickinson, Lot 6235472). The broth was prepared at 1.05× normal weight/volume to offset the 5% volume of the drugs in the final test plates.
(§4) In order to select the proper test concentrations for each drug combination, minimal inhibitory concentration (MIC) values were first determined using the broth microdilution method previously described (Clinical and Laboratory Standards Institute. Methods for Dilution Antimicrobial Susceptibility Tests for Bacteria That Grow Aerobically; Approved Standard—Seventh Edition. Clinical and Laboratory Standards Institute document M7-A7 [ISBN 1-56238-587-9]. Clinical and Laboratory Standards Institute, 940 West Valley Road, Suite 1400, Wayne, Pa. 19087-1898 USA, 2006).
(§5) The wells of standard 96-well microdilution plates (Falcon 3918) were filled with 150 μL of 100% DMSO using the Multidrop 384. These plates were used to prepare the drug “mother plates” which provided the serial drug dilutions for the drug combination plates. The Biomek 2000 was used to transfer 150 μl of each stock solution (80×) from the wells in Column 1 of a deep well plate to the corresponding wells in Column 1 of the mother plate and to make seven 2-fold serial dilutions. Two mother plates, one for each drug, were combined to form a “checkerboard” pattern by transfer of equal volumes (using a multi-channel pipette) to the drug combination plate. Row H and Column 8 each contained serial dilutions of one of the agents alone for determination of the MIC.
(§6) Plates were stacked 3 high, covered with a lid on the top plate, placed in plastic bags, and incubated at 35° C. for approximately 20 hours. Following incubation, the microplates were removed from the incubator and viewed from the bottom using a ScienceWare plate viewer. Prepared reading sheets were marked for the MIC of drug 1 (row H), the MIC of drug 2 (column 8) and the wells of the growth-no growth interface.

Staphylococcus aureus = test: MIC, broth microdilution (Example 1); format: cell-based
Method: as §1, §2, §3, §4, §5, §6

Klebsiella pneumoniae = test: MIC, broth microdilution (Example 1); format: cell-based; conditions: Klebsiella pneumoniae
Method: as §1, §2, §3, §4, §5, §6

Streptococcus pneumoniae = test: MIC, broth microdilution (Example 1); format: cell-based
Method: as §1, §2, §3, §4, §5, §6

Acinetobacter baumannii = test: MIC, broth microdilution (Example 1); format: cell-based
Method: as §1, §2, §3, §4, §5, §6

`C[C@@H](O)[C@H]1C(=O)N2C(C(=O)O)=C(S[C@@H]3CN[C@H](C(=O)N(C)C)C3)[C@H](C)[C@H]12` [Meropenem] gave an MBC range (P. aeruginosa) of 0.125 to 32 µg/mL, an MIC range (P. aeruginosa) of 0.125 to 16 µg/mL and an MBC (P. aeruginosa; P. aeruginosa isolate no. 796, read-out: MBC) of 2 µg/mL (≈ 5.22 µM). For the same compound, the MIC (P. aeruginosa; P. aeruginosa isolate no. 796, read-out: MIC) was 1 µg/mL (≈ 2.61 µM), the MBC (P. aeruginosa; P. aeruginosa isolate no. 956, read-out: MBC) was 2 µg/mL (≈ 5.22 µM) and the MIC (P. aeruginosa; P. aeruginosa isolate no. 956, read-out: MIC) was 0.25 µg/mL (≈ 0.652 µM). For the same compound, the MBC (P. aeruginosa; P. aeruginosa isolate no. 1019, read-out: MBC) was 2 µg/mL (≈ 5.22 µM), the MIC (P. aeruginosa; P. aeruginosa isolate no. 1019, read-out: MIC) was 1 µg/mL (≈ 2.61 µM) and the MBC (P. aeruginosa; P. aeruginosa isolate no. 1037, read-out: MBC) was 1 µg/mL (≈ 2.61 µM). For the same compound, the MIC (P. aeruginosa; P. aeruginosa isolate no. 1037, read-out: MIC) was 0.5 µg/mL (≈ 1.3 µM), the MBC range [1] was 0.06 to 0.125 µg/mL and the MIC range [1] was 0.03 to 0.06 µg/mL. It also gave an MBC ([1]; K. pneumonia isolate no. 5427, read-out: MBC) of 0.06 µg/mL (≈ 0.156 µM), an MIC ([1]; K. pneumonia isolate no. 5427, read-out: MIC) of 0.06 µg/mL (≈ 0.156 µM) and an MBC ([1]; K. pneumonia isolate no. 5436, read-out: MBC) of 0.06 µg/mL (≈ 0.156 µM). The MIC ([1]; K. pneumonia isolate no. 5436, read-out: MIC) was 0.06 µg/mL (≈ 0.156 µM), the MBC range (ESBL-producing E. coli) was 0.06 to 0.125 µg/mL and the MIC range (ESBL-producing E. coli) was 0.03 to 0.06 µg/mL. For the same compound, the MBC (ESBL-producing E. coli; E. coli isolate no. 5401, read-out: MBC) was 0.06 µg/mL (≈ 0.156 µM), the MIC (ESBL-producing E. coli; E. coli isolate no. 5401, read-out: MIC) was 0.06 µg/mL (≈ 0.156 µM) and the MBC (ESBL-producing E. coli; E. coli isolate no. 5411, read-out: MBC) was 0.06 µg/mL (≈ 0.156 µM). For the same compound, the MIC (ESBL-producing E. coli; E. coli isolate no. 5411, read-out: MIC) was 0.06 µg/mL (≈ 0.156 µM), the MIC ([2]; Enterobacteriacae (30 isolates)) was no more than 4 µg/mL and the MBC range [3] was 0.03 to 0.5 µg/mL. It also gave an MIC range [3] of 0.03 to 0.25 µg/mL, an MBC ([3]; E. cloacae isolate no. 4073) of 0.5 µg/mL (≈ 1.3 µM) and an MIC ([3]; E. cloacae isolate no. 4073) of 0.25 µg/mL (≈ 0.652 µM). The MBC ([3]; E. cloacae isolate no. 5420) was 0.125 µg/mL (≈ 0.326 µM), the MIC ([3]; E. cloacae isolate no. 5420) was 0.125 µg/mL (≈ 0.326 µM) and the MIC (Pseudomonas aeruginosa; P. aeruginosa 2555) was 4 µg/mL. For the same compound, the MIC (Pseudomonas aeruginosa; P. aeruginosa 2559) was 0.12 µg/mL, the MIC (Staphylococcus aureus; S. aureus 2296 (CA-MRSA)) was >16^a^ μg/mL and the MIC (Staphylococcus aureus; Staphylococcus aureus, MRSA, S. aureus 2202 (CA-MRSA), read-out: MIC) was 4 µg/mL. It also gave an MIC (Staphylococcus aureus; Staphylococcus aureus, MRSA, S. aureus 2296 (CA-MRSA), read-out: MIC) greater than 16 µg/mL and an MIC (Klebsiella pneumoniae; K. pneumoniae 1468 (ESBL), read-out: MIC) of 0.06 µg/mL.

In the case of `CN(C)c1cc(NC(=O)CNC(C)(C)C)c(O)c2c1C[C@H]1C[C@H]3[C@H](N(C)C)C(O)=C(C(N)=O)C(=O)[C@@]3(O)C(O)=C1C2=O` [Tigecycline], the MBC range (P. aeruginosa) is reported as 8 to 256 µg/mL, the MIC range (P. aeruginosa) is reported as 2 to 32 µg/mL and the MBC (P. aeruginosa; P. aeruginosa isolate no. 796) is reported as 32 µg/mL (≈ 54.6 µM). For the same compound, the MIC (P. aeruginosa; P. aeruginosa isolate no. 796) was 32 µg/mL (≈ 54.6 µM), the MBC (P. aeruginosa; P. aeruginosa isolate no. 956) was 128 µg/mL (≈ 219 µM) and the MIC (P. aeruginosa; P. aeruginosa isolate no. 956) was 16 µg/mL (≈ 27.3 µM). The MBC (P. aeruginosa; P. aeruginosa isolate no. 1019) was 8 µg/mL (≈ 13.7 µM), the MIC (P. aeruginosa; P. aeruginosa isolate no. 1019) was 2 µg/mL (≈ 3.41 µM) and the MBC (P. aeruginosa; P. aeruginosa isolate no. 1037) was 32 µg/mL (≈ 54.6 µM). For the same compound, the MIC (P. aeruginosa; P. aeruginosa isolate no. 1037) was 8 µg/mL (≈ 13.7 µM), the MBC range [1] was 0.5 to 8 µg/mL and the MIC range [1] was 0.125 to 1 µg/mL. The MBC ([1]; K. pneumonia isolate no. 5427) was 2 µg/mL (≈ 3.41 µM), the MIC ([1]; K. pneumonia isolate no. 5427) was 0.5 µg/mL (≈ 0.854 µM) and the MBC ([1]; K. pneumonia isolate no. 5436) was 1 µg/mL (≈ 1.71 µM). For the same compound, the MIC ([1]; K. pneumonia isolate no. 5436) was 0.125 µg/mL (≈ 0.213 µM), the MBC range (ESBL-producing E. coli) was 0.06 to 4 µg/mL and the MIC range (ESBL-producing E. coli) was 0.06 to 0.5 µg/mL. The MBC (ESBL-producing E. coli; E. coli isolate no. 5401) was 1 µg/mL (≈ 1.71 µM), the MIC (ESBL-producing E. coli; E. coli isolate no. 5401) was 0.5 µg/mL (≈ 0.854 µM) and the MBC (ESBL-producing E. coli; E. coli isolate no. 5411) was 0.5 µg/mL (≈ 0.854 µM). The MIC (ESBL-producing E. coli; E. coli isolate no. 5411) was 0.125 µg/mL (≈ 0.213 µM), the MIC [2] was no more than 8 µg/mL and the MBC range [3] was 0.5 to 4 µg/mL. It also gave an MIC range [3] of 0.25 to 2 µg/mL, an MBC ([3]; E. cloacae isolate no. 4073) of 2 µg/mL (≈ 3.41 µM) and an MIC ([3]; E. cloacae isolate no. 4073) of 0.5 µg/mL (≈ 0.854 µM). It also gave an MBC ([3]; E. cloacae isolate no. 5420) of 2 µg/mL (≈ 3.41 µM), an MIC ([3]; E. cloacae isolate no. 5420) of 0.5 µg/mL (≈ 0.854 µM) and an MIC (Staphylococcus aureus; Staphylococcus aureus, MRSA, S. aureus 0765 (MRSA)) of 0.25 µg/mL. For the same compound, the MIC (Staphylococcus aureus; Staphylococcus aureus, MRSA, S. aureus 2053 (MRSA)) was 0.5 µg/mL, the MIC (Klebsiella pneumoniae) was 0.25 µg/mL and the MIC (Streptococcus pneumoniae; S. pneumoniae 0884 (PRSP)) was 0.03 µg/mL. It also gave an MIC (Streptococcus pneumoniae; Streptococcus pneumoniae, PRSP) of 0.03 µg/mL, an MIC (Acinetobacter baumannii; A. baumannii 2602) of 0.06 µg/mL and an MIC (Acinetobacter baumannii; Acinetobacter baumannii) of 0.06 µg/mL.
